In ChEMBL document CHEMBL3272040, “3-Cyanocephems, and carbon-3 heterocyclic-substituted cephems via 1,3-dipolar cycloadditions” (1976):
Converted amounts (≈) assume the structure as drawn.

Columns and labels:
Streptococcus pyogenes = test: Antimicrobial activity against Streptococcus pyogenes MB-3124; format: functional
Staphylococcus aureus = test: Antimicrobial activity against Staphylococcus aureus MB-2865; format: functional

Row | SMILES | MIC (Streptococcus pyogenes) [µg/mL] | MIC (Staphylococcus aureus) [µg/mL]
1 | CCOC(=O)C1CC(C2=C(C(=O)OC(c3ccccc3)c3ccccc3)N3C(=O)[C@@H](NC(=O)Cc4cccs4)[C@H]3SC2)=NN1 (stereo partly specified) | < 0.39 | –
2 | O=C(Cc1cccs1)N[C@@H]1C(=O)N2C(C(=O)OC(c3ccccc3)c3ccccc3)=C(C#[N+][O-])CS[C@H]12 | < 0.39 | –
3 | COC(=O)C1=C(/C=N/O)CS[C@@H]2[C@H](NC(=O)Cc3cccs3)C(=O)N12 | < 0.39 | –
4 | Cc1ccc(S(=O)(=O)N/N=C/C2=C(C(=O)OC(c3ccccc3)c3ccccc3)N3C(=O)[C@@H](NC(=O)Cc4cccs4)[C@H]3SC2)cc1 | < 0.39 | –
5 | Cc1ccc(S(=O)(=O)N(C)/N=C/C2=C(C(=O)OC(c3ccccc3)c3ccccc3)N3C(=O)[C@@H](NC(=O)Cc4cccs4)[C@H]3SC2)cc1 | < 0.39 | –
6 | COC(=O)c1cc(C2=C(C(=O)O)N3C(=O)[C@@H](NC(=O)Cc4cccs4)[C@H]3SC2)nn1C | < 0.39 | 0.78 (≈ 1.69 µM)
7 | O=CC1=C(C(=O)OC(c2ccccc2)c2ccccc2)N2C(=O)[C@@H](NC(=O)Cc3cccs3)[C@H]2SC1 | < 0.39 | –
8 | Cc1ccc(S(=O)(=O)N(C)/N=C/C2=C(C(=O)O)N3C(=O)[C@@H](NC(=O)Cc4cccs4)[C@H]3SC2)cc1 | < 0.39 | < 0.39
9 | COC(=O)c1cc(C2=C(C(=O)O)N3C(=O)[C@@H](NC(=O)Cc4cccs4)[C@H]3SC2)n[nH]1 | < 0.39 | 3.12 (≈ 6.96 µM)
10 | O=C(Cc1cccs1)N[C@@H]1C(=O)N2C(C(=O)OC(c3ccccc3)c3ccccc3)=C(/C=N/NC(=O)c3ccccc3)CS[C@H]12 | < 0.39 | –
11 | [N-]=[N+]=CC1=C(C(=O)OC(c2ccccc2)c2ccccc2)N2C(=O)[C@@H](NC(=O)Cc3cccs3)[C@H]2SC1 | < 0.39 | –
12 | O=C(Cc1cccs1)N[C@@H]1C(=O)N2C(C(=O)O)=C(c3cc(-c4ccccc4)on3)CS[C@H]12 | < 0.39 | < 0.39
13 | COC(=O)CO/N=C/C1=C(C(=O)OC)N2C(=O)[C@@H](NC(=O)Cc3cccs3)[C@H]2SC1 | < 0.39 | –
14 | COC(=O)CO/N=C/C1=C(C(=O)OC(c2ccccc2)c2ccccc2)N2C(=O)[C@@H](NC(=O)Cc3cccs3)[C@H]2SC1 | < 0.39 | –
15 | COC(=O)CO/N=C/C1=C(C(=O)O)N2C(=O)[C@@H](NC(=O)Cc3cccs3)[C@H]2SC1 | < 0.39 | 12.5 (≈ 28.4 µM)
16 | N#CC1=C(C(=O)O)N2C(=O)[C@@H](NC(=O)Cc3cccs3)[C@H]2SC1 | < 0.39 | 0.78 (≈ 2.23 µM)
17 | O=C(O)CO/N=C/C1=C(C(=O)OC(c2ccccc2)c2ccccc2)N2C(=O)[C@@H](NC(=O)Cc3cccs3)[C@H]2SC1 | < 0.39 | –
18 | CO/N=C/C1=C(C(=O)OC(c2ccccc2)c2ccccc2)N2C(=O)[C@@H](NC(=O)Cc3cccs3)[C@H]2SC1 | < 0.39 | –
19 | COC(=O)c1cc(C2=C(C(=O)OC(c3ccccc3)c3ccccc3)N3C(=O)[C@@H](NC(=O)Cc4cccs4)[C@H]3SC2)n[nH]1 | < 0.39 | –

Now from value to compound:

Row | MIC (Streptococcus pyogenes) [µg/mL] | MIC (Staphylococcus aureus) [µg/mL] | SMILES
20 | < 0.39 | – | O=C(Cc1cccs1)N[C@@H]1C(=O)N2C(C(=O)OC(c3ccccc3)c3ccccc3)=C(/C=N/Nc3ccc([N+](=O)[O-])cc3)CS[C@H]12
21 | < 0.39 | – | COC(=O)C1=C(c2cc(-c3ccccc3)on2)CS[C@@H]2[C@H](NC(=O)Cc3cccs3)C(=O)N12
22 | < 0.39 | – | COC(=O)C1=C(c2cc(C(=O)OC)n(C)n2)CS[C@@H]2[C@H](NC(=O)Cc3cccs3)C(=O)N12
23 | < 0.39 | < 0.39 | O=C(Cc1cccs1)N[C@@H]1C(=O)N2C(C(=O)O)=C(/C=N/O)CS[C@H]12
24 | < 0.39 | – | Cc1ccc(S(=O)(=O)[N-]/N=C/C2=C(C(=O)OC(c3ccccc3)c3ccccc3)N3C(=O)[C@@H](NC(=O)Cc4cccs4)[C@H]3SC2)cc1.[Li+]
25 | < 0.39 | – | CCOC(=O)N/N=C/C1=C(C(=O)OC(c2ccccc2)c2ccccc2)N2C(=O)[C@@H](NC(=O)Cc3cccs3)[C@H]2SC1
26 | < 0.39 | – | O=C(Cc1cccs1)N[C@@H]1C(=O)N2C(C(=O)OC(c3ccccc3)c3ccccc3)=C(/C=N/O)CS[C@H]12
27 | < 0.39 | – | O=C(Cc1cccs1)N[C@@H]1C(=O)N2C(C(=O)OC(c3ccccc3)c3ccccc3)=C(c3nn[nH]c3C(F)(F)F)CS[C@H]12
28 | < 0.39 | – | COC(=O)c1cc(C2=C(C(=O)OC(c3ccccc3)c3ccccc3)N3C(=O)[C@@H](NC(=O)Cc4cccs4)[C@H]3SC2)nn1C
29 | < 0.39 | – | COC(=O)c1[nH]nc(C2=C(C(=O)OC(c3ccccc3)c3ccccc3)N3C(=O)[C@@H](NC(=O)Cc4cccs4)[C@H]3SC2)c1C(=O)OC
30 | < 0.39 | – | CC(=O)N/N=C/C1=C(C(=O)OC(c2ccccc2)c2ccccc2)N2C(=O)[C@@H](NC(=O)Cc3cccs3)[C@H]2SC1
31 | < 0.39 | – | O=C(Cc1cccs1)N[C@@H]1C(=O)N2C(C(=O)OC(c3ccccc3)c3ccccc3)=C(/C=N/OCc3ccccc3)CS[C@H]12
32 | < 0.39 | – | COC(=O)C1=C(/C=N/N(C)S(=O)(=O)c2ccc(C)cc2)CS[C@@H]2[C@H](NC(=O)Cc3cccs3)C(=O)N12
33 | < 0.39 | – | O=C(Cc1cccs1)N[C@@H]1C(=O)N2C(C(=O)OC(c3ccccc3)c3ccccc3)=C(c3cc(-c4ccccc4)on3)CS[C@H]12
34 | < 0.39 | – | N#CC1=C(C(=O)OC(c2ccccc2)c2ccccc2)N2C(=O)[C@@H](NC(=O)Cc3cccs3)[C@H]2SC1
